Measured values taken from patent publication US10196411B2, “Tizoxanide phosphate and alkane sulfonate and pharmaceutical applications thereof” (priority 2014, dated 2019).
Converted amounts (≈) assume the structure as drawn. Where a name gives a salt, the structure may show the parent alone. Read-outs that look alike come from different tables or passages of the source.

Experiments:
Helicobacter pylori = conditions: 103 strains of Helicobacter pylori; cited from earlier work
PR8 influenza virus = PR8 influenza virus in MDCK cells; cited from earlier work
[1] = Pharmacokinetic evaluation of oral administration and intravenous injection in rats; type: in vivo, SD rats; conditions: for MRT last: read-out: MRT(0-t)
Method: 9 SD rats (SPF grade, male, 200±10 g), provided by Laboratory Animal Center of the Academy of Military Medical Sciences, were grouped randomly, 3 […] for each group.
[…]; The plasma was separated and stored in a −20° C. refrigerator for further detection.
(2) Oral administration group of Compound 3, a dose of 15 mg/kg (equivalent to a dose of 41 μmol/kg tizoxanide); […]; The plasma was separated and stored in a −20° C. refrigerator for further detection.
(3) Oral administration group of nitazoxanide: a dose of 12.5 mg/kg (equivalent to a dose of 41 μmol/kg tizoxanide); administration volume: 2 mL/200 g rat (preparation of a test solution: 10.96 mg nitazoxanide was weighed accurately and dissolved by adding 600 μL DMSO, and […] sterile water was added to prepare a clear solution at 1.25 mg/mL); after oral administration of nitazoxanide at 12.5 mg/kg in rats, blood was taken before administration and at 0.08, 0.25, 0.5, 1, 2, 4, 6, 8, 12 and 24 h after administration. The plasma was separated and stored in a −20° C. refrigerator for further detection.
Treatment of plasma sample: 100 μL plasma was taken, 300 μL acetonitrile solution containing internal standard (500 nmol/L a solution of tolbutamide in acetonitrile) was added, and then mixed well. The mixture was vortexed for 1 min, and centrifuged at 4° C. for 10 min (at a relative centrifugal force (RCF) of 14000 g). The supernatant was taken, and 20 μL was drawn for LC/MS/MS analysis, so as to detect the blood concentration of tizoxanide and the prototype drug.

[2] = system: Mycobacterium tuberculosis; conditions: cited from earlier work
[3] = in vivo, cited from earlier work
[4] = Pharmacokinetic evaluation of oral administration in mice (tizoxanide in blood by LC/MS/MS); type: in vivo, ICR mice; conditions: in words; for conversion to the active form tizoxanide in vivo: after oral administration in mice; for Area Under concentration-time Curve (AUC) compared to nitazoxanide: oral administration in mice
Method: Sample preparation: 32.57 μmol of a test compound was dissolved in 100 μL dimethyl sulfoxide (DMSO), with the addition of 10 mL 0.5% Carboxyl Methyl Cellulose Sodium (CMC-Na) solution, to prepare a sample at 3.257 μmol/mL.
The test compounds refer to the compounds prepared in Examples of the invention and the positive control compound nitazoxanide. The experiment was carried out in two batches, wherein the first hatch of test compounds were Compound 1, 2, 6, 7, 8, 9 and the positive control compound nitazoxanide; and the second batch of test compounds were Compound 3, 4, 5, 12, 14, 17, 18 and positive control compound nitazoxanide.
Experimental method: ICR mice (SPS grade, male, […]), purchased from Beijing Vital River Laboratory Animal Technology Co., Ltd., were grouped randomly depending on body weight, 3 mice for each group. Nitazoxanide and a test compound were intragastrically administered separately to each mouse at a dose of 10 mL/kg (i.e., 32.57 μmol/kg of corresponding drug to each mouse), wherein nitazoxanide was used as positive control, and 0.1 ml blood was taken from veins of Fundus Oculi at 0.08, 0.25, 0.5, 1, 2, 4, 6, 8 and 12 h after administration, placed in a Heparin Sodium-containing centrifuge tube, and centrifuged for 20 min (at a relative centrifugal force (RCF) of 3000 g). The plasma was taken and stored in a −20° C. refrigerator for further detection.
During the detection, 50 μL plasma was taken, with the addition of an internal standard solution (5000 ng/mL glipizide aqueous solution, 10 μL), and the addition of acetonitrile (200 μL), and then mixed well. The mixture was vortexed for 3 min, and centrifuged for 10 min (at a relative centrifugal force (RCF) of 8500 g). The supernatant (50 μL) was well mixed with water (50 μL), and 10 μL was drawn for LC/MS/MS analysis, so as to detect the blood concentration of tizoxanide. The results are shown in Table 1, Table 2, Table 3, Table 4, FIG. 1, and FIG. 2.

[5] = in words
[6] = Compound 3 in plasma, rats, intravenous injection of Compound 3 (5 mg/kg)
[7] = Compound 3 in plasma, rats, oral administration of Compound 3 (15 mg/kg)
[8] = male, SD, rat, in vivo, Compound 3 in plasma, rats, intravenous injection of Compound 3 (5 mg/kg)
[9] = male, SD, rat, in vivo, Compound 3 in plasma, rats, oral administration of Compound 3 (15 mg/kg)
[10] = male, SD, rat, in vivo, rats, intravenous injection of Compound 3 (5 mg/kg), read-out: plasma concentration of Compound 3
[11] = male, SD, rat, in vivo, rats, oral administration of Compound 3 (15 mg/kg), read-out: plasma concentration of Compound 3

## O=C(Nc1ncc([N+](=O)[O-])s1)c1ccccc1O [tizoxanide]
Helicobacter pylori
  50% minimal inhibitory concentration (MIC50): 1 µg/mL
  90% minimal inhibitory concentration (MIC90): 4 µg/mL

## CC(=O)Oc1ccccc1C(=O)Nc1ncc([N+](=O)[O-])s1 [nitazoxanide, 2-acetoxy-N-(5-nitro-2-thiazolyl)benzamide]
PR8 influenza virus
  EC50: 1 µg/mL (≈ 3.25 µM)
  EC90: 7 µg/mL (≈ 22.8 µM)
Helicobacter pylori
  50% minimal inhibitory concentration (MIC50): 1 µg/mL
  90% minimal inhibitory concentration (MIC90): 4 µg/mL
[1]; male, SD, rat, in vivo, po, 12.5 mg/kg
  Vz/F: 32.67 ± 16.81 L/kg
[2]
  minimal inhibitory concentration (MIC), median value: 16 µg/mL (≈ 52.1 µM)
[3]; po
  detection of nitazoxanide in plasma, urine, bile and feces: not detectable
[3]
  fraction of the oral dose excreted by feces: about ⅔
  fraction of the oral dose excreted by urine: about ⅓

## CS(=O)(=O)Oc1ccccc1C(=O)Nc1ncc([N+](=O)[O-])s1 [Compound 6, 2-(5-nitrothiazol-2-yl-carbamoyl)phenyl methanesulfonate]
other
  melting point: 188 to 190 °C
[4]
  conversion to the active form tizoxanide in vivo: relatively complete
  Area Under concentration-time Curve (AUC) compared to nitazoxanide: much higher

## CCS(=O)(=O)Oc1ccccc1C(=O)Nc1ncc([N+](=O)[O-])s1 [Compound 7, 2-(5-nitrothiazol-2-yl-carbamoyl)phenyl ethanesulfonate]
other
  melting point: 178 to 180 °C
[4]
  conversion to the active form tizoxanide in vivo: relatively complete
  Area Under concentration-time Curve (AUC) compared to nitazoxanide: much higher

## NCCS(=O)(=O)Oc1ccccc1C(=O)Nc1ncc([N+](=O)[O-])s1 [Compound 12, 2-(5-nitrothiazol-2-yl-carbamoyl)phenyl taurate hydrochloride]
[4]
  conversion to the active form tizoxanide in vivo: relatively complete
  Area Under concentration-time Curve (AUC) compared to nitazoxanide: much higher

## CCCS(=O)(=O)Oc1ccccc1C(=O)Nc1ncc([N+](=O)[O-])s1 [Compound 8, 2-(5-nitrothiazol-2-yl-carbamoyl)phenyl 1-propanesulfonate]
other
  melting point: 144 to 146 °C
[4]
  conversion to the active form tizoxanide in vivo: relatively complete
  Area Under concentration-time Curve (AUC) compared to nitazoxanide: much higher

## COP(=O)(OC)Oc1ccccc1C(=O)Nc1ncc([N+](=O)[O-])s1 [Compound 17, dimethyl 2-(5-nitrothiazol-2-yl-carbamoyl)phenyl phosphate]
[4]
  conversion to the active form tizoxanide in vivo: relatively complete
  Area Under concentration-time Curve (AUC) compared to nitazoxanide: obviously higher

## O=C(Nc1ncc([N+](=O)[O-])s1)c1ccccc1OP(=O)(O)O [Compound 5, 2-(5-nitrothiazol-2-yl-carbamoyl)phenyl phosphate calcium salt]
[5]
  solubility compared to nitazoxanide: much better

## O=C(Nc1ncc([N+](=O)[O-])s1)c1ccccc1OP(=O)(O)O [Compound 3, 2-(5-nitrothiazol-2-yl-carbamoyl)phenyl hydrogen phosphate monosodium salt]
[1]; [6]
  CLz/F: 17.2 ± 2.83 mL/min/kg
  t1/2z: 28.8 ± 16.8 min
[1]; [7]
  CLz/F: 1879.8 ± 783.8 mL/min/kg
  F: 2.4%
  t1/2z: 100 ± 100 min
[1]; [8]
  AUC(0-inf): 4920 ± 786 ng·h/mL
  AUC(0-t): 4920 ± 786 ng·h/mL
  Cmax: 26700 ± 6590 ng/mL
  MRT last: 15.6 ± 9 min
[1]; [9]
  AUC(0-inf): 154 ± 76.3 ng·h/mL
  AUC(0-t): 119 ± 50 ng·h/mL
  Cmax: 100 ± 20 ng/mL
  Tmax: 15 min
  MRT last: 73.2 ± 49.8 min
[1]; male, SD, rat, in vivo, Compound 3 in plasma, rats, oral administration of Compound 3 (15 mg/kg), read-out: Vz/F
  Vd/F: 198 ± 118 L/kg
[1]; [10]
  concentration at 0.03 h: 26700 ± 6590 ng/mL
  concentration at 0.08 h: 13300 ± 1390 ng/mL
  concentration at 0.25 h: 3970 ± 1880 ng/mL
  concentration at 0.5 h: 1730 ± 1250 ng/mL
  concentration at 1 h: 345 ± 316 ng/mL
[1]; male, SD, rat, in vivo, rats, intravenous injection of Compound 3 (5 mg/kg), 2 h, read-out: plasma concentration of Compound 3
  concentration at 2 h: 113 ± 83.4 ng/mL
[1]; male, SD, rat, in vivo, rats, intravenous injection of Compound 3 (5 mg/kg), 4 h, read-out: plasma concentration of Compound 3
  concentration at 4 h: 13.9 ± 1.9 ng/mL
[1]; [11]
  concentration at 0.03 h: 55.3 ± 2.1 ng/mL
  concentration at 0.08 h: 99.1 ± 22.1 ng/mL
  concentration at 0.25 h: 71.1 ± 7.3 ng/mL
  concentration at 0.5 h: 33 ± 3.2 ng/mL
  concentration at 1 h: 24.4 ± 1.6 ng/mL
[1]; rats, oral administration or intravenous injection, in words
  conversion to active form tizoxanide: quickly converted

## CC(C)(C)OC(=O)NCCS(=O)(=O)Oc1ccccc1C(=O)Nc1ncc([N+](=O)[O-])s1
other
  melting point: 164 to 166 °C

## O=C(Nc1ncc([N+](=O)[O-])s1)c1ccccc1OP(=O)(OCc1ccccc1)OCc1ccccc1 [Compound 1, dibenzyl 2-(5-nitrothiazol-2-yl-carbamoyl)phenyl phosphate]
other
  melting point: 122 to 123 °C
[4]
  conversion to the active form tizoxanide in vivo: relatively complete
  Area Under concentration-time Curve (AUC) compared to nitazoxanide: slightly higher

## CCCCS(=O)(=O)Oc1ccccc1C(=O)Nc1ncc([N+](=O)[O-])s1 [Compound 9, 2-(5-nitrothiazol-2-yl-carbamoyl)phenyl 1-butanesulfonate]
other
  melting point: 142 to 144 °C
[4]
  conversion to the active form tizoxanide in vivo: relatively complete
  Area Under concentration-time Curve (AUC) compared to nitazoxanide: much higher

## O=C(Nc1ncc([N+](=O)[O-])s1)c1ccccc1OP(=O)(O)O [Compound 2, 2-(5-nitrothiazol-2-yl-carbamoyl)phenyl dihydrogen phosphate]
other
  melting point: 224 to 226 °C
[4]
  conversion to the active form tizoxanide in vivo: relatively complete

## CCOP(=O)(OCC)Oc1ccccc1C(=O)Nc1ncc([N+](=O)[O-])s1 [Compound 18, diethyl 2-(5-nitrothiazol-2-yl-carbamoyl)phenyl phosphate]
[4]
  conversion to the active form tizoxanide in vivo: relatively complete
  Area Under concentration-time Curve (AUC) compared to nitazoxanide: obviously higher
